Experiments:
Assay type in all cases: cell-based, murine
[1] = biological target: Ba/F3 EGFR Del19/T790M/C797S mutants (Homo sapiens, UniProt P00533, T790M/C797S, cells depend on it, form not given); experiment: CellTiter-Glo cell viability, Ba/F3 EGFR Del19/T790M/C797S cells; conditions: 72 hours, read-out: Ba/F3 EGFR mutant cell (IC50, nM) D/T/C
Experimental: (§1) In order to evaluate an inhibitory ability on wild-type Ba/F3 EGFR and Ba/F3 EGFR mutations in Ba/F3 cell lines by the compounds of Formula 1, the experiment was carried out as described below.
(§2) The measurement of activities on Ba/F3 cells harboring wild-type EGFR and EGFR mutants by the compounds of the present invention were determined utilizing the CELLTITER-GLO™ system from Promega, as follows. The CELLTITER-GLO™ assay is a method for measuring the ATP present in cells to determine the cell viability. Ba/F3 EGFR wild-type and Ba/F3 EGFR L858R/C797S (L/C), Ba/F3 EGFR L858R/T790M/C797S (L/T/C), Ba/F3 EGFR Del19/T790M (D/T), Ba/F3 EGFR Del19/C797S (D/C), Ba/F3 EGFR Del19/T790M/C797S (D/T/C) mutant cell lines were maintained in RPMI1640, containing […], 1% penicillin-streptomycin, […] puromycin. Cells were grown in a humidified incubator at 37° C. with […].
(§3) The analysis of an EGFR inhibitory activity by the compounds was carried out in accordance with the analysis reaction recipe below.
(§4) 2500 cells/90 μL were seeded in 96 well cell culture plate, and after 24 hours, treated with the compounds represented by Formula 1 in concentrations of 0, 0.3, 0.9, 2.7, 8.2, 24.7, 74.1, 222.2, 666.7, 2000 (nM). After the reaction of 72 hours, the plate was incubated for 30 minutes at ambient temperature, and then, was further treated with 100 μL of the CELLTITER-GLO™ reagent and was shaken for 10 minutes at ambient temperature. Finally, measurement of the luminescence values were obtained using the SPECTRAMAX™ iD3 (Molecular Devices), and the IC50 values of the compound were analyzed using the GraphPad Prism program (version 9.0.2, GraphPad Software, Inc.).

[2] = biological target: Ba/F3 EGFR L858R/C797S mutants (Homo sapiens, UniProt P00533, C797S/L858R, cells depend on it); experiment: CellTiter-Glo cell viability, Ba/F3 EGFR L858R/C797S cells; conditions: 72 hours, read-out: Ba/F3 EGFR mutant cell (IC50, nM) L/C
Experimental: as §1, §2, §3, §4

Ba/F3 EGFR Wild-type = Ba/F3 EGFR Wild-type (Homo sapiens, UniProt P00533); experiment: CellTiter-Glo cell viability, Ba/F3 EGFR wild-type cells; conditions: 72 hours, read-out: Ba/F3 EGFR mutant cell (IC50, nM) WT
Experimental: as §1, §2, §3, §4

[3] = biological target: Ba/F3 EGFR L858R/T790M/C797S mutants (Homo sapiens, UniProt P00533, T790M/C797S/L858R, cells depend on it); experiment: CellTiter-Glo cell viability, Ba/F3 EGFR L858R/T790M/C797S cells; conditions: 72 hours, read-out: Ba/F3 EGFR mutant cell (IC50, nM) L/T/C
Experimental: as §1, §2, §3, §4

[4] = biological target: Ba/F3 EGFR Del19/C797S mutants (Homo sapiens, UniProt P00533, C797S, cells depend on it, form not given); experiment: CellTiter-Glo cell viability, Ba/F3 EGFR Del19/C797S cells; conditions: 72 hours, read-out: Ba/F3 EGFR mutant cell (IC50, nM) D/C
Experimental: as §1, §2, §3, §4

Ba/F3 EGFR L858R/C797S mutants, sequence (P00533 whole entry C797S/L858R): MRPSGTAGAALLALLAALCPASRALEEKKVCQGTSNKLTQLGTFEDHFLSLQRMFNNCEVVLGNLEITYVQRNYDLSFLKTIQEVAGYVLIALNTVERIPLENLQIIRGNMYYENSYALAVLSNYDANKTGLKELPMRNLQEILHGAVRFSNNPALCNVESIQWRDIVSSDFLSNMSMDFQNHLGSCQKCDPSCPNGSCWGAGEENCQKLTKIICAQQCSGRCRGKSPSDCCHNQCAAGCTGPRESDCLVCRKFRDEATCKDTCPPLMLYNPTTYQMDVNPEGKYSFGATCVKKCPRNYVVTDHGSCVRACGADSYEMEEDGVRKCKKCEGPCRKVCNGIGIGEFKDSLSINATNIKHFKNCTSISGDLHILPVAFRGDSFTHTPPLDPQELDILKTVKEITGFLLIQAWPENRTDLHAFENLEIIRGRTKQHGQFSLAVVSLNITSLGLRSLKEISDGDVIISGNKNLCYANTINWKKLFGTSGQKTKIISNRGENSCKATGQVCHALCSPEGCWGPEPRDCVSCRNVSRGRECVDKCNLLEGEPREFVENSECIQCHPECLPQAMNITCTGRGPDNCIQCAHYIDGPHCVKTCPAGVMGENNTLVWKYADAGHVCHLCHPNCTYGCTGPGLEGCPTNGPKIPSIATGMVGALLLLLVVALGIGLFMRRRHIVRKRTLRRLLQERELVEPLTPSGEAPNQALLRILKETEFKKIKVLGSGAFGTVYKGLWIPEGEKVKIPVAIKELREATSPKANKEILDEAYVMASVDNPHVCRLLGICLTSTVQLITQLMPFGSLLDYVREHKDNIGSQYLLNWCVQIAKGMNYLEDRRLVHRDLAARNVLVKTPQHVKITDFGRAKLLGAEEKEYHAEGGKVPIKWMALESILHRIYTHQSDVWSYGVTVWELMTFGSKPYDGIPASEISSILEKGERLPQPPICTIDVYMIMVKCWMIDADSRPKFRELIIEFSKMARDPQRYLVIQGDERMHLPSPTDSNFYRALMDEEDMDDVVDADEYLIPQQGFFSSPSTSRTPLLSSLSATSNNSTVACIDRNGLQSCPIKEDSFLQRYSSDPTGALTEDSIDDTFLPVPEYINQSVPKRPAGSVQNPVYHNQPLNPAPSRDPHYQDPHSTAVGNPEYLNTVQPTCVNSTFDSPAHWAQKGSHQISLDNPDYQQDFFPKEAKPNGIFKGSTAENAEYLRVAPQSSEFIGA
Ba/F3 EGFR Del19/T790M/C797S mutants, sequence (P00533 with tags, fused parts or gaps DEL746-750/T790M/C797S, form open): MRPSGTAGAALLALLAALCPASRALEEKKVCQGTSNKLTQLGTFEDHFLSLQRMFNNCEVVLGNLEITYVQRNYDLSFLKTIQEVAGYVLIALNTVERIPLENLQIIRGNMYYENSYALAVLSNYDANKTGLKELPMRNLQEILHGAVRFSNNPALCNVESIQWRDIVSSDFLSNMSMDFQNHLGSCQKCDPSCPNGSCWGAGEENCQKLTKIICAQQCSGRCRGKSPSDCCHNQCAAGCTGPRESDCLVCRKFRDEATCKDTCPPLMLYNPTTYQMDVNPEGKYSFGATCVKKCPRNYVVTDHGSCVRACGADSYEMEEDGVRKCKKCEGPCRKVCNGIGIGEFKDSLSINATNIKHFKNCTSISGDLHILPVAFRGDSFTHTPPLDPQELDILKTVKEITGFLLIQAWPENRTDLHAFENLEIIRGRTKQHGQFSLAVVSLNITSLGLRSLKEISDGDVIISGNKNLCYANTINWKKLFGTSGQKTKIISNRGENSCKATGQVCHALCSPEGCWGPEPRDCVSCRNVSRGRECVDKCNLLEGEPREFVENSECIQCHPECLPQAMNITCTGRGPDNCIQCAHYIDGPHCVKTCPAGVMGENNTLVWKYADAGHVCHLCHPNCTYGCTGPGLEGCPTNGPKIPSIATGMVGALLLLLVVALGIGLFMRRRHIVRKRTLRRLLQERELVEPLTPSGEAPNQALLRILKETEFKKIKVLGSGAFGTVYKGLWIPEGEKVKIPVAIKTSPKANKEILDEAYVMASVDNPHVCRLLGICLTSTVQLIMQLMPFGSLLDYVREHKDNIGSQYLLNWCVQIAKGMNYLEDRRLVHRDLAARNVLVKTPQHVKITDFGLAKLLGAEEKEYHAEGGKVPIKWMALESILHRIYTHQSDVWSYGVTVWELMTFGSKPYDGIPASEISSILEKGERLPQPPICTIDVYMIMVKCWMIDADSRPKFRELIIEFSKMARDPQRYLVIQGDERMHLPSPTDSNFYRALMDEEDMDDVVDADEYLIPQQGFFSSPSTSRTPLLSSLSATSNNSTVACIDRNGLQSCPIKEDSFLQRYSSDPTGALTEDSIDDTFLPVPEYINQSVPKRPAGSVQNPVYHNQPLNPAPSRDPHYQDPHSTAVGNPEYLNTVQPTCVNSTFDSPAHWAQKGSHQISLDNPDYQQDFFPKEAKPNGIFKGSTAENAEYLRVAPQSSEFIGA
Ba/F3 EGFR L858R/T790M/C797S mutants, sequence (P00533 whole entry T790M/C797S/L858R): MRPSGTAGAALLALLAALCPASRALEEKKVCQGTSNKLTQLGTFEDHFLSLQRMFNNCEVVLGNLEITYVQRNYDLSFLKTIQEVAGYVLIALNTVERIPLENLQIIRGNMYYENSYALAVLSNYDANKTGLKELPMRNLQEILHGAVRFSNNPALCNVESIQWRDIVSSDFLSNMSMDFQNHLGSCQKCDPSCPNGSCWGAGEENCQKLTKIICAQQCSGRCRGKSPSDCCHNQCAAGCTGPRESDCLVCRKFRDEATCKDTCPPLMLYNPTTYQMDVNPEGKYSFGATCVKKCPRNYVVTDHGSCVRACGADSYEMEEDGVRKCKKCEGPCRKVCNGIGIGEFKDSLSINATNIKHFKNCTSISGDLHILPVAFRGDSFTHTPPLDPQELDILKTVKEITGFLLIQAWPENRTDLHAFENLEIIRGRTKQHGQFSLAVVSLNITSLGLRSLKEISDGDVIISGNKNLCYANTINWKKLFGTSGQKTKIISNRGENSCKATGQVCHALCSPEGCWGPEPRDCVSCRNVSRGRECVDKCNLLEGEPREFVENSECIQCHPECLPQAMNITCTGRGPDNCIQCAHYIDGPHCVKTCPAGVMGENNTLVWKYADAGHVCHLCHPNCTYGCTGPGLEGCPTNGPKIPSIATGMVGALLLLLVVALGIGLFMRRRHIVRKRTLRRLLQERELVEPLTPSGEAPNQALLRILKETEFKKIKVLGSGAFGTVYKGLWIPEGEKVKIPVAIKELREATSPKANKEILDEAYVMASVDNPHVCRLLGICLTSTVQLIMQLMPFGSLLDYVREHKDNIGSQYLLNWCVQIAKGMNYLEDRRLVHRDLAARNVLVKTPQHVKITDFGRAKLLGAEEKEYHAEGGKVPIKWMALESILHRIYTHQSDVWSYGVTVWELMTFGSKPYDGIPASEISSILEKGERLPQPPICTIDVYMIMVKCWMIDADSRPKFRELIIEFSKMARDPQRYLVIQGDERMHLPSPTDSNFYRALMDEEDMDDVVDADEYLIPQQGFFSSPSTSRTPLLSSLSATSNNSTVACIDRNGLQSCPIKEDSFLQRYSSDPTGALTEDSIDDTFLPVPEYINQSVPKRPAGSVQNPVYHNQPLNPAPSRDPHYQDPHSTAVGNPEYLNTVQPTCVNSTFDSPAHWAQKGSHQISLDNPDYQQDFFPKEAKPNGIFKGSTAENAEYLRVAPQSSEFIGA
Ba/F3 EGFR Wild-type, sequence (P00533 whole entry, change not shown): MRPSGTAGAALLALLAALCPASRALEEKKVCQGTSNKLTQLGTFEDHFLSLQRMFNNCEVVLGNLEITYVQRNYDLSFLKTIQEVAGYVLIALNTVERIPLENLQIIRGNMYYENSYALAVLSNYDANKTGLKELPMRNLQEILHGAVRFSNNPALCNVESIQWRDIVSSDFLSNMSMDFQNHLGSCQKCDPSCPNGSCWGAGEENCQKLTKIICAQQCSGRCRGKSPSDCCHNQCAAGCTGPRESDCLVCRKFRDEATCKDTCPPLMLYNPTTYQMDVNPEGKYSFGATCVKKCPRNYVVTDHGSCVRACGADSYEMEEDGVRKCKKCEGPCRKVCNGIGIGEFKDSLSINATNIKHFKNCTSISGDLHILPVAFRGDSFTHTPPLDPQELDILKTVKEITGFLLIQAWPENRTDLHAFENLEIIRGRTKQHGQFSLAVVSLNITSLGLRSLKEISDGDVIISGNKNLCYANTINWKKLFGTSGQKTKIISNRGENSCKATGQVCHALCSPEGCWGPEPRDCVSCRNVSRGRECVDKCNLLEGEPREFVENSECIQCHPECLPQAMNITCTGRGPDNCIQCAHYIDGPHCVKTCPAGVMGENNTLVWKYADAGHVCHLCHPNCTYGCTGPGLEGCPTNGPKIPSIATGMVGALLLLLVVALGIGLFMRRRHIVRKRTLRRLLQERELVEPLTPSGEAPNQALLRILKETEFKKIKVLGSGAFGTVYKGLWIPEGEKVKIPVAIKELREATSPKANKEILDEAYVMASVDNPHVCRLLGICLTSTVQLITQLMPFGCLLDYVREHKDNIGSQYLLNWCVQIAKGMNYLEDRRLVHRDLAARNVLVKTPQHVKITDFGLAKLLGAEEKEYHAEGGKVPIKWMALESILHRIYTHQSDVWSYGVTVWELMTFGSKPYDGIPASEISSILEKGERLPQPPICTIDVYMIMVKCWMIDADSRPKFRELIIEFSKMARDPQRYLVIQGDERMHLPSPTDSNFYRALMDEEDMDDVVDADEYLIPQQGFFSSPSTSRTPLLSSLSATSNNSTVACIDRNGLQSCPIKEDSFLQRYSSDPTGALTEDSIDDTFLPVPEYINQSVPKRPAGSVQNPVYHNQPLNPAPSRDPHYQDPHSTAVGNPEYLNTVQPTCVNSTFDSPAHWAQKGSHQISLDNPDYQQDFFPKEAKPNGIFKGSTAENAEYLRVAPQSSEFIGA

SMILES | GI50 [1] [nM] | GI50 [2] [nM] | GI50 (Ba/F3 EGFR Wild-type) [nM] | GI50 [3] [nM] | GI50 [4] [nM]
CCc1cc(Nc2ncc(F)c(Nc3ccc4nccnc4c3NS(C)(=O)=O)n2)c(OC)cc1N1CCC(N2CCN(C)CC2)CC1 [Example A9, N-(6-((2-((5-ethyl-2-methoxy-4-(4-(4-methylpiperazin-1-yl)piperidin-1-yl)phenyl)amino)-5-fluoropyrimidin-4-yl)amino)quinoxalin-5-yl)methanesulfonamide] | 62 | 106 | 524 | 80 | 15
CCc1cc(Nc2ncc(Br)c(Nc3ccc4nccnc4c3NS(C)(=O)=O)n2)c(OC)cc1N1CCC(N(C)C)CC1 [Example B2, N-(6-((5-bromo-2-((4-(4-(dimethylamino)piperidin-1-yl)-5-ethyl-2-methoxyphenyl)amino)pyrimidin-4-yl)amino)quinoxalin-5-yl)methanesulfonamide] | 7 | 195 | 2100 | 13 | 28
CNc1cc(N2CCC(N3CCN(C)CC3)CC2)c(C)cc1Nc1ncc(Cl)c(Nc2ccc3nccnc3c2NS(C)(=O)=O)n1 [Example A13, N-(6-((5-chloro-2-((5-methyl-2-(methylamino)-4-(4-(4-methylpiperazin-1-yl)piperidin-1-yl)phenyl)amino)pyrimidin-4-yl)amino)quinoxalin-5-yl)methanesulfonamide] | 109 | 646 | > 2000 | 338 | 265
CCc1cc(Nc2ncc(Br)c(Nc3ccc4nccnc4c3NS(C)(=O)=O)n2)c(OC)cc1N1CCC(N2CCN(C)CC2)CC1 [Example A8, N-(6-((5-bromo-2-((5-ethyl-2-methoxy-4-(4-(4-methylpiperazin-1-yl)piperidin-1-yl)phenyl)amino)pyrimidin-4-yl)amino)quinoxalin-5-yl)methanesulfonamide] | 6 | 147 | 919 | 18 | 38
COc1cc(N2CCC(N3CCN(C)CC3)CC2)c(C)cc1Nc1ncc(Cl)c(Nc2ccc3nccnc3c2NS(=O)(=O)C2CC2)n1 [Example A26, N-(6-((5-chloro-2-((2-methoxy-5-methyl-4-(4-(4-methylpiperazin-1-yl)piperidin-1-yl)phenyl)amino)pyrimidin-4-yl)amino)quinoxalin-5-yl)cyclopropanesulfonamide] | 79 | 163 | 1280 | 107 | 72
COc1cc(N2CCC(N3CCN(C)CC3)CC2)c(C)cc1Nc1ncc(C(F)(F)F)c(Nc2ccc3nccnc3c2NS(C)(=O)=O)n1 [Example A20, N-(6-((2-((2-methoxy-5-methyl-4-(4-(4-methylpiperazin-1-yl)piperidin-1-yl)phenyl)amino)-5-(trifluoromethyl)pyrimidin-4-yl)amino)quinoxalin-5-yl)methane sulfonamide] | 1590 | > 2000 | > 2000 | > 2000 | > 2000
COc1cc(N2CCC(N3CCN(C)CC3)CC2)c(C2CC2)cc1Nc1ncc(Cl)c(Nc2ccc3nccnc3c2NS(C)(=O)=O)n1 [Example A5, N-(6-((5-chloro-2-((5-cyclopropyl-2-methoxy-4-(4-(4-methylpiperazin-1-yl)piperidin-1-yl)phenyl)amino)pyrimidin-4-yl)amino)quinoxalin-5-yl)methanesulfonamide] | 23 | 244 | 938 | 69 | 76
COc1cc(N2CCC(N(C)C)CC2)ccc1Nc1ncc(Br)c(Nc2ccc3nccnc3c2NS(C)(=O)=O)n1 [Example B3, N-(6-((5-bromo-2-((4-(4-(dimethylamino)piperidin-1-yl)-2-methoxyphenyl)amino)pyrimidin-4-yl)amino)quinoxalin-5-yl)methanesulfonamide] | 30 | 325 | 725 | 86 | 147
COc1cc(N2CCC(N3CCN(C)CC3)CC2)ccc1Nc1ncc(Cl)c(Nc2ccc3nccnc3c2NS(C)(=O)=O)n1 [Example A3, N-(6-((5-chloro-2-((2-methoxy-4-(4-(4-methylpiperazin-1-yl)piperidin-1-yl)phenyl)amino)pyrimidin-4-yl)amino)quinoxalin-5-yl)methanesulfonamide] | 48 |  |  | 97.6 | 
COc1cc(N2CCC(N(C)C)CC2)c(C)cc1Nc1ncc(C(F)(F)F)c(Nc2ccc3nccnc3c2NS(C)(=O)=O)n1 [Example B9, N-(6-((2-((4-(4-(dimethylamino)piperidin-1-yl)-2-methoxy-5-methylphenyl)amino)-5-(trifluoromethyl)pyrimidin-4-yl)amino)quinoxalin-5-yl) methane sulfonamide] | > 2000 | > 2000 | > 2000 | > 2000 | > 2000
CCc1cc(Nc2ncc(Cl)c(Nc3ccc4nccnc4c3NS(C)(=O)=O)n2)c(OC)cc1N1CCC(N(C)C)CC1 [Example B5, N-(6-((5-chloro-2-((4-(4-(dimethylamino)piperidin-1-yl)-5-ethyl-2-methoxyphenyl)amino)pyrimidin-4-yl)amino)quinoxalin-5-yl)methanesulfonamide] | 14 | 223 | 1860 | 36 | 30
COc1cc(N2CCC(N3CCN(C)CC3)CC2)c(C)cc1Nc1ncc(F)c(Nc2ccc3nccnc3c2NS(C)(=O)=O)n1 [Example A22, N-(6-((5-fluoro-2-((2-methoxy-5-methyl-4-(4-(4-methylpiperazin-1-yl)piperidin-1-yl)phenyl)amino)pyrimidin-4-yl)amino)quinoxalin-5-yl)methanesulfonamide] | 189 | 189 | 521 | 369 | 73
COc1cc(N2CCC(N(C)C)CC2)c(C)cc1Nc1ncc(Cl)c(Nc2ccc3nccnc3c2NS(C)(=O)=O)n1 [Example B4, N-(6-((5-chloro-2-((4-(4-(dimethylamino)piperidin-1-yl)-2-methoxy-5-methylphenyl)amino)pyrimidin-4-yl)amino)quinoxalin-5-yl)methanesulfonamide] | 4 | 14 | 10 | 9 | 9
COc1cc(C2CCNCC2)ccc1Nc1ncc(F)c(Nc2ccc3nccnc3c2NS(C)(=O)=O)n1 [Example B17, N-(6-((5-fluoro-2-((2-methoxy-4-(piperidin-4-yl)phenyl)amino)pyrimidin-4-yl)amino)quinoxalin-5-yl)methanesulfonamide] | > 2000 | > 2000 | > 2000 | > 2000 | 1250
CC(C)Oc1cc(C2CCNCC2)ccc1Nc1ncc(Cl)c(Nc2ccc3nccnc3c2NS(C)(=O)=O)n1 [Example B22, N-(6-((5-chloro-2-((2-isopropoxy-4-(piperidin-4-yl)phenyl)amino)pyrimidin-4-yl)amino)103quinoxaline-5-yl)methanesulfonamide] | > 2000 | > 2000 | > 2000 | > 2000 | 
COc1cc(N2CCC(N3CCN(C)CC3)CC2)c(C(F)(F)F)cc1Nc1ncc(Cl)c(Nc2ccc3nccnc3c2NS(C)(=O)=O)n1 [Example A7, N-(6-((5-chloro-2-((2-methoxy-4-(4-(4-methylpiperazin-1-yl)piperidin-1-yl)-5-(trifluoromethyl)phenyl)amino)pyrimidin-4-yl)amino)quinoxalin-5-yl)methanesulfonamide] | 36 | 246 | 602 | 169 | 96
COc1cc(N2CCOCC2)c(C)cc1Nc1ncc(Br)c(Nc2ccc3nccnc3c2NS(C)(=O)=O)n1 [Example B10, N-(6-((5-bromo-2-((2-methoxy-5-methyl-4-morpholinophenyl)amino)pyrimidin-4-yl)amino)quinoxalin-5-yl)methanesulfonamide] | 252 | 678 | 858 | 584 | 537

— patent US12297194B2, “N2-phenylpyrimidine-2,4-diamine compounds, and preparation methods and methods of use thereof” (BRIDGE BIOTHERAPEUTICS, INC., priority 2021, dated 2025)
